Values after ≈ are worked out from the molar mass of the structure shown. Read-outs that look alike come from different tables or passages of the source.
Assays:
in vivo = details: rat, blood, oral, 50 mg/kg, male wister rats (7 weeks old), bioassay (Escherichia coli SC507); for concentration at 4 h: Four Hours; for concentration at 1 h: One Hour; for concentration at 2 h: Two Hours
Method: Male wister rats (7 weeks old) were administered orally with the test compound, and the change of the concentration of the compound in blood was measured.
Dosage of the test compound:
Quantitative method: Bioassay
(test bacterium: Escherichia coli SC507)

[1] = system: Proteus mirabilis IFO 3849; test: Antibacterial activity (MIC), agar plate dilution method; assay type: cell-based
Method: (§1) The antibacterial activity of the compounds of the present invention against various bacteria (inoculum size: 10^6 cells/ml) were tested by the agar plate dilution method, and the results are shown in the following Table 1.

[2] = system: Klebsiella pneumoniae IFO 3317; test: as above; assay type: cell-based
Method: as §1

[3] = system: Escherichia coli NIHJ JC-2; test: as above; assay type: cell-based
Method: as §1

[4] = system: Serratia marcescens IID 618; test: as above; assay type: cell-based
Method: as §1

MIC ([1]; Proteus mirabilis IFO 3849, inoculum size: 10^6 cells/ml, agar plate dilution)	MIC ([2]; Klebsiella pneumoniae IFO 3317, inoculum size: 10^6 cells/ml, agar plate dilution)	MIC ([3]; Escherichia coli NIHJ JC-2, inoculum size: 10^6 cells/ml, agar plate dilution)	MIC ([4]; Serratia marcescens IID 618, inoculum size: 10^6 cells/ml, agar plate dilution)	MIC ([1]; IFO3849, Proteus mirabilis IFO 3849, inoculum size: 10^6 cells/ml, agar plate dilution, read-out: MIC)	MIC ([2]; IFO3317, Klebsiella pneumoniae IFO 3317, inoculum size: 10^6 cells/ml, agar plate dilution, read-out: MIC)	MIC ([3]; NIHJJC2, Escherichia coli NIHJ JC-2, inoculum size: 10^6 cells/ml, agar plate dilution, read-out: MIC)	MIC ([4]; IID618, Serratia marcescens IID 618, inoculum size: 10^6 cells/ml, agar plate dilution, read-out: MIC)	Structure (SMILES)	concentration at 4 h (in vivo)	concentration at 1 h (in vivo)	concentration at 2 h (in vivo)	MIC ([1]; Proteus mirabilis, IFO3849)	MIC ([2]; Klebsiella pneumoniae, IFO3317)	MIC ([3]; Escherichia coli, NIHJJC2)	MIC ([4]; Serratia marcescens, IID618)
–	–	–	–	–	–	–	–	CCNC(=O)/C=C\SC1=C(C(=O)[O-])N2C(=O)[C@@H](NC(=O)/C(=N\OCC(=O)[O-])c3csc(N)n3)[C@H]2SC1.[Na+].[Na+]	24.2 µg/mL	26.8 µg/mL	34.3 µg/mL	0.025 mg/L	0.05 mg/L	0.39 mg/L	0.39 mg/L
< 0.025 mg/L	0.05 mg/L	0.2 mg/L	0.2 mg/L	–	–	–	–	CN(C)C(=O)/C=C\SC1=C(C(=O)[O-])N2C(=O)[C@@H](NC(=O)/C(=N\OCC(=O)O)c3csc(N)n3)[C@H]2SC1.[Na+] [A, 7β-{α-(2-aminothiazole-4-yl)-α-[(Z)-carboxymethoxyimino]acetamido}-3-[(Z)-2-N,N-dimethylaminocarbonylvinylthio]-3-cephem-4-carboxylic acid sodium salt]	–	–	–	–	–	–	–
–	–	–	–	0.025 mg/L (≈ 0.0461 µM)	0.05 mg/L (≈ 0.0922 µM)	0.2 mg/L (≈ 0.369 µM)	0.39 mg/L (≈ 0.719 µM)	CNC(=O)/C=C\SC1=C(C(=O)O)N2C(=O)[C@@H](NC(=O)/C(=N\OCC(=O)O)c3csc(N)n3)[C@H]2SC1 [C]	22.4 µg/mL	20.8 µg/mL	26.6 µg/mL	–	–	–	–
–	–	–	–	–	–	–	–	CC1=C(C(=O)O)N2C(=O)[C@@H](NC(=O)[C@H](N)c3ccccc3)[C@H]2SC1 [YY, Cefalexin, reference compound]	–	–	–	12.5 mg/L (≈ 36 µM)	6.25 mg/L (≈ 18 µM)	12.5 mg/L (≈ 36 µM)	> 100 mg/L
